Data: patent US20250129101A1, “Compound, Pharmaceutical Composition Comprising the Same and Method for Treating Cancer Using the Same” (NATIONAL TSING HUA UNIVERSITY, priority 2023, published 2025)

Key:
[1] = target: T1, KIF2C (Homo sapiens, UniProt Q99661); assay: In vitro validation: KIF2C kinesin activity, malachite green-based phosphate colorimetric assay; format: biochemical; details: for EC50: concentration that inhibits 50% of KIF2C activity
T1 construct: KIF2C (216-598 a.a.); 6xHis (C); made in house; host or cells: E. coli BL21 (DE3), pET-28a
T1 sequence (Q99661 216-598): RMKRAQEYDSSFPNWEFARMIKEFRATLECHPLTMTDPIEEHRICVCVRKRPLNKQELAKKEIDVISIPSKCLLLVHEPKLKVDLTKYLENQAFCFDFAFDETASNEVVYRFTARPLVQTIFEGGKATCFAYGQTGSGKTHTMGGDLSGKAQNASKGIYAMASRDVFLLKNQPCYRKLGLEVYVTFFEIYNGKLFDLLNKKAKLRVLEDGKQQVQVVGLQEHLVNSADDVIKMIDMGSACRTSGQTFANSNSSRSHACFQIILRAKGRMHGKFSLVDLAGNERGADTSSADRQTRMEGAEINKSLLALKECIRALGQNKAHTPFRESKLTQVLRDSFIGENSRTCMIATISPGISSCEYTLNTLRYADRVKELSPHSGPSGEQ
Protocol: (§1) The in vitro validation was performed by measuring KIF2C kinesin activity using malachite green-based phosphate colorimetric assay (BioVision). […] The microtubules from porcine brain tubulin (Cytoskeleton) or purified from HEK293 cells in Free-style medium (293Fs) were dissolved in the BRB80 buffer (80 mM PIPES pH 6.8, 1 mM EGTA, 1 mM MgCl2, 1 mM GTP, 1 mM DTT, and 10% DMSO) at 37° C. for 2 hr. Phosphates released from kinesin-mediated ATP hydrolysis was measured by adding 30 μL of the phosphate colorimetric reagent (BioVision), incubated for 10 min, and then measured with absorbance at 650 nm. […] The cell validation was performed by measuring cytotoxicity in MDA-MB-231 cells. The cells were cultured in a 96-well plate at a confluence of 2000 cells/well with indicates compounds for specific days. When the time was up, the culture medium in the plate was aspirated and replaced with a prepared CellTiter-Glo reagent (Promega)/DMEM mixture (1:1 mix of CellTiter-Glo reagent and serum-supplemented DMEM). After incubation for 10 min, the luminescence was measured with an ELISA plate reader to determine the cell viability.
In vitro kinesin activity was measured using malachite green-based phosphate colorimetric assay (BioVision). […] The microtubules from porcine brain tubulin (Cytoskeleton) or purified from HEK293 cells in Free-style medium (293Fs) were dissolved in the BRB80 buffer (80 mM PIPES pH 6.8, 1 mM EGTA, 1 mM MgCl2, 1 mM GTP, 1 mM DTT, and 10% DMSO) at 37° C. for 2 hr. Phosphates released from kinesin-mediated ATP hydrolysis was measured by adding 30 μL of the phosphate colorimetric reagent (BioVision), incubated for 10 min, and then measured with absorbance at 650 nm.
Constructs of sN+M regions of KIF2C (216-598 a.a.), KIF2A (181-562 a.a.) and KIF2B (171-553 a.a.) with C-terminal 6×His tag were subcloned into pET-28a vector and expressed in BL21 (DE3) E. coli cells (Novartis) cultured in Luria-Bertani medium supplemented with 50 ug/mL kanamycin at 37° C. After induction with 0.8 mM IPTG for 18 hr at 20° C., the cells were pelleted by centrifugation at 6000 rpm for 30 min at 10° C. The collected pellets were resuspended in 30 mL of buffer A (20 mM Tris-HCl pH 7.5, 500 mM NaCl, 10 mM imidazole, 1% CHAPS, and 1 mM PMSF) and next subjected to a high-pressure homogenizer (EmulsiFlex-C3) for cell lysis. After removing the cell debris by centrifugation at 13000 rpm for 30 min at 10° C., the recombinant Kinesin-13 in the supernatant was purified using nickel affinity chromatography. Firstly, the supernatant was applied to the Ni-NTA column (GE Healthcare) pre-equilibrated with buffer A. Secondly, the column was washed with 10× column volumes of buffer A to remove the unwanted proteins. The washed column was then eluted with 10× column volumes of buffer containing increasing concentrations of imidazole (40, 100, 300, 1000 mM), and the majority of the recombinant Kinesin-13 protein was eventually obtained in a fraction of 300 mM imidazole. The fractions containing the recombinant Kinesin-13 were subsequently concentrated in the buffer B (20 mM Tris-HCl pH 7.5, 10 mM imidazole, 50 mM NaCl, 2 mM DTT) using an Amicon® Ultra filter (Millipore) and subjected to cation exchange column (Capto S, GE Healthcare) for further purification. The recombinant Kinesin-13 was then eluted in elution buffer (20 mM Tris-HCl pH 7.5 and 2 mM DTT) containing 400 mM of NaCl and stored at −80° C. for long-term storage.

[2] = test system: MDA-MB-231 cells; assay: Cell validation: cytotoxicity in MDA-MB-231 cells (CellTiter-Glo); format: cell-based; details: for IC50: Homo sapiens; for IC50 / Cell validation (IC50): cytotoxicity in MDA-MB-231 cells
Protocol: as §1
The cancer cells were cultured in a 96-well plate at a confluence of 1000-2000 cells/well with indicated drugs for specific days. When the time was up, the culture medium in the plate was aspirated and replaced with a prepared CellTiter-Glo reagent/DMEM mixture (1:1 mix of CellTiter-Glo reagent and serum-supplemented DMEM). After incubation for 10 min, the luminescence (proportional to the number of living cells) was measured with an ELISA plate reader to determine the cell viability.

EC50 [1]	SMILES	IC50 [2]	cytotoxicity on MDA-MB-231 cells (in words) ([2]; 72 hr)	Cell validation (IC50) [2]	KIF2C activity in reaction containing nocodazole (in words) ([1]; 1 μM nocodazole)
> 100 µM	CC1=C(C(=O)OC(C)C)C(c2ccc(Cl)cc2)n2c(s/c(=C\c3ccc(F)cc3)c2=O)=N1 (centres unmarked) [2S0 (22), isopropyl (Z)-5-(4-chlorophenyl)-2-(4-fluorobenzylidene)-7-methyl-3-oxo-2,3-dihydro-5H-thiazolo[3,2-a]pyrimidine-6-carboxylate]	> 50 µM	–	–	–
> 100 µM	CCOC(=O)COc1ccc(/C=c2\sc3n(c2=O)C(c2ccc(Cl)cc2)C(C(=O)OC(C)C)=C(C)N=3)cc1 (centres unmarked) [4S0 (26), 1-methylethyl 5-(4-chlorophenyl)-2-[[4-(2-ethoxy-2-oxoethoxy)phenyl]methylene]-2,3-dihydro-7-methyl-3-oxo-5H-thiazolo[3,2-a]pyrimidine-6-carboxylate]	> 50 µM	–	–	–
> 100 µM	CC1=C(C(=O)OC(C)C)C(c2ccc(Cl)cc2)n2c(s/c(=C\c3ccc(OCC(N)=O)cc3)c2=O)=N1 (centres unmarked) [8S0 (15), isopropyl (Z)-2-(4-(2-amino-2-oxoethoxy)benzylidene)-5-(4-chlorophenyl)-7-methyl-3-oxo-2,3-dihydro-5H-thiazolo[3,2-a]pyrimidine-6-carboxylate]	> 50 µM	–	–	–
< 50 µM	CC1=C(C(=O)OC(C)C)C(c2ccc(F)cc2)n2c(s/c(=C\c3ccc(OCC(=O)O)cc3)c2=O)=N1 (centres unmarked) [9S0 (32), (4-(((2Z)-5-(4-fluorophenyl)-7-methyl-3-oxo-6-((propan-2-yloxy)carbonyl)-5H-[1,3]thiazolo[3,2-a]pyrimidin-2(3H)-ylidene)methyl)phenoxy)acetic acid]	> 50 µM	–	–	–
> 100 µM	CNC(=O)COc1ccc(/C=c2\sc3n(c2=O)C(c2ccc(F)cc2)C(C(=O)OC(C)C)=C(C)N=3)cc1 (centres unmarked) [10S0 (35), isopropyl (Z)-5-(4-fluorophenyl)-7-methyl-2-(4-(2-(methylamino)-2-oxoethoxy)benzylidene)-3-oxo-2,3-dihydro-5H-thiazolo[3,2-a]pyrimidine-6-carboxylate]	> 50 µM	–	–	–
> 100 µM	CC1=C(C(=O)OC(C)C)C(c2ccc(Cl)cc2)n2c(s/c(=C\c3ccc(OCC(=O)N4CCN(C(C)C)CC4)cc3)c2=O)=N1 (centres unmarked) [11S0 (16), isopropyl (Z)-5-(4-chlorophenyl)-2-(4-(2-(4-isopropylpiperazin-1-yl)-2-oxoethoxy)benzylidene)-7-methyl-3-oxo-2,3-dihydro-5H-thiazolo[3,2-a]pyrimidine-6-carboxylate]	–	–	+ +	–
50 to 100 µM	COC(=O)C1=C(C)N=c2s/c(=C\c3ccc(OCC(=O)O)cc3)c(=O)n2C1c1ccc(Cl)cc1 (centres unmarked) [14S0 (78), (Z)-2-(4-((5-(4-chlorophenyl)-6-(methoxycarbonyl)-7-methyl-3-oxo-5H-thiazolo[3,2-a]pyrimidin-2(3H)-ylidene)methyl)phenoxy)acetic acid]	> 50 µM	–	–	–
> 100 µM	CC1=C(C(=O)OC(C)C)C(c2cccc(Cl)c2)n2c(s/c(=C\c3ccc(OCC(=O)O)cc3)c2=O)=N1 (centres unmarked) [15S0 (66), (Z)-2-(4-((5-(3-chlorophenyl)-6-(isopropoxycarbonyl)-7-methyl-3-oxo-5H-thiazolo[3,2-a]pyrimidin-2(3H)-ylidene)methyl)phenoxy)acetic acid]	> 50 µM	–	–	–
50 to 100 µM	CCN1CCN(C(=O)COc2ccc(/C=c3\sc4n(c3=O)C(c3cccc(Cl)c3)C(C(=O)OC(C)C)=C(C)N=4)cc2)CC1 (centres unmarked) [16S0 (67), isopropyl (Z)-5-(3-chlorophenyl)-2-(4-(2-(4-ethylpiperazin-1-yl)-2-oxoethoxy)benzylidene)-7-methyl-3-oxo-2,3-dihydro-5H-thiazolo[3,2-a]pyrimidine-6-carboxylate]	–	–	+ +	–
> 100 µM	CC1=C(C(=O)OC(C)C)C(c2ccc(C)cc2)n2c(s/c(=C\c3ccc(OCC(=O)O)cc3)c2=O)=N1 (centres unmarked) [17S0 (50), (Z)-2-(4-((6-(isopropoxycarbonyl)-7-methyl-3-oxo-5-(p-tolyl)-5H-thiazolo[3,2-a]pyrimidin-2(3H)-ylidene)methyl)phenoxy)acetic acid]	> 50 µM	–	–	–
50 to 100 µM	CCN1CCN(C(=O)COc2ccc(/C=c3\sc4n(c3=O)C(c3ccc(C)cc3)C(C(=O)OC(C)C)=C(C)N=4)cc2)CC1 (centres unmarked) [18S0 (51), isopropyl (Z)-2-(4-(2-(4-ethylpiperazin-1-yl)-2-oxoethoxy)benzylidene)-7-methyl-3-oxo-5-(p-tolyl)-2,3-dihydro-5H-thiazolo[3,2-a]pyrimidine-6-carboxylate]	–	–	+ +	–
< 50 µM	CC1=C(C(=O)OC(C)C)C(c2ccc(N(C)C)cc2)n2c(s/c(=C\c3ccc(OCC(=O)N4CCN(C)CC4)cc3)c2=O)=N1 (centres unmarked) [19S0 (56), isopropyl (Z)-5-(4-(dimethylamino)phenyl)-7-methyl-2-(4-(2-(4-methylpiperazin-1-yl)-2-oxoethoxy)benzylidene)-3-oxo-2,3-dihydro-5H-thiazolo[3,2-a]pyrimidine-6-carboxylate]	–	–	+ +	–
–	CC1=C(C(=O)OC(C)C)C(c2ccc(Cl)cc2)n2c(s/c(=C\c3ccc(OCC(=O)N4CCC(N5CCN(C)CC5)CC4)cc3)c2=O)=N1.O=C(O)/C=C\C(=O)O (centres unmarked) [24S9 (135), isopropyl (Z)-5-(4-chlorophenyl)-7-methyl-2-(4-(2-(4-(4-methylpiperazin-1-yl)piperidin-1-yl)-2-oxoethoxy)benzylidene)-3-oxo-2,3-dihydro-5H-thiazolo[3,2-a]pyrimidine-6-carboxylate maleate]	–	–	+ + + +	–
–	COC(=O)Nc1nc2ccc(C(=O)c3cccs3)cc2[nH]1 [nocodazole, reference compound]	–	–	–	largely reduced

SMILES	EC50 [1]	IC50 [2]	cytotoxicity on MDA-MB-231 cells (in words) ([2]; 72 hr)	Cell validation (IC50) [2]	KIF2C activity in reaction containing nocodazole (in words) ([1]; 1 μM nocodazole)
COc1ccc(/C=c2\sc3n(c2=O)C(c2ccc(Cl)cc2)C(C(=O)OC(C)C)=C(C)N=3)cc1 (centres unmarked) [3S0 (23), isopropyl (Z)-5-(4-chlorophenyl)-2-(4-methoxybenzylidene)-7-methyl-3-oxo-2,3-dihydro-5H-thiazolo[3,2-a]pyrimidine-6-carboxylate]	> 100 µM	> 50 µM	–	–	–
CC1=C(C(=O)OC(C)C)C(c2ccc(Cl)cc2)n2c(s/c(=C\c3ccc(OCC(=O)N4CCN(C)CC4)cc3)c2=O)=N1 (centres unmarked) [6S0 (13), propan-2-yl (2Z)-5-(4-chlorophenyl)-7-methyl-2-(4-(2-(4-methylpiperazin-1-yl)-2-oxoethoxy)benzylidene)-3-oxo-2,3-dihydro-5H-[1,3]thiazolo[3,2-a]pyrimidine-6-carboxylate]	50 to 100 µM	–	showed cytotoxicity	+ +	–
CCOC(=O)C1=C(C)N=c2s/c(=C\c3ccc(OCC(=O)O)cc3)c(=O)n2C1c1ccc(Cl)cc1 (centres unmarked) [12S0 (79), (Z)-2-(4-((5-(4-chlorophenyl)-6-(ethoxycarbonyl)-7-methyl-3-oxo-5H-thiazolo[3,2-a]pyrimidin-2(3H)-ylidene)methyl)phenoxy)acetic acid]	< 20 µM	> 50 µM	–	–	–
CC1=C(C(=O)OC(C)C)C(c2ccc(Br)cc2)n2c(s/c(=C\c3ccc(OCC(=O)N4CCN(C)CC4)cc3)c2=O)=N1 (centres unmarked) [20S0 (41), isopropyl (Z)-5-(4-bromophenyl)-7-methyl-2-(4-(2-(4-methylpiperazin-1-yl)-2-oxoethoxy)benzylidene)-3-oxo-2,3-dihydro-5H-thiazolo[3,2-a]pyrimidine-6-carboxylate]	50 to 100 µM	–	–	+ + +	–
